Measured values: the supplement of paper PMC12592484

Tests used:
Test in all cases: drug sensitivity score (DSS2, normalised partial AUC of dose-response, 72 h CellTiter-Glo viability) (DSS (dimensionless)); higher = more sensitive (stronger growth inhibition / cytotoxicity); extreme values may be limits of the assay
22Rv1 = test system: 22Rv1
Method in brief: (§1)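 Five doses spanning a 10,000-fold range were pre-dispensed into 384-well plates, into which low-passage primary prostate cancer-associated fibroblasts, PF179T, WPMY-1, LNCaP and 22Rv1 cells were seeded. After 72 h, CellTiter-Glo 2.0 luminescence measured viability, scaled to vehicle and positive-control wells. Higher values of the drug sensitivity score, a BREEZE-computed partial area under the fitted logistic dose–response curve divided by the log of the upper asymptote, mean greater sensitivity.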

CAF#1 = test system: CAF#1 (primary prostate cancer-associated fibroblasts of myCAF-like type)
Method in brief: as §1

CAF#2 = test system: CAF#2 (primary prostate cancer-associated fibroblasts of iCAF-like type)
Method in brief: as §1

CAF#3 = test system: CAF#3 (primary prostate cancer-associated fibroblasts of myCAF-like type)
Method in brief: as §1

CAF#4 = test system: CAF#4 (primary prostate cancer-associated fibroblasts of iCAF-like type)
Method in brief: as §1

CAF#5 = test system: CAF#5 (primary prostate cancer-associated fibroblasts of myCAF-like type)
Method in brief: as §1

CAF#6 = test system: CAF#6 (primary prostate cancer-associated fibroblasts of iCAF-like type)
Method in brief: as §1

CAF#7 = test system: CAF#7 (primary prostate cancer-associated fibroblasts of myCAF-like type)
Method in brief: as §1

LNCAP = test system: LNCAP
Method in brief: as §1

PF179T = test system: PF179T
Method in brief: as §1

WPMY-1 = test system: WPMY-1
Method in brief: as §1

Row | Compound | drug sensitivity score (22Rv1) | drug sensitivity score (CAF#1) | drug sensitivity score (CAF#2) | drug sensitivity score (CAF#3) | drug sensitivity score (CAF#4) | drug sensitivity score (CAF#5) | drug sensitivity score (CAF#6) | drug sensitivity score (CAF#7) | drug sensitivity score (LNCAP) | drug sensitivity score (PF179T) | drug sensitivity score (WPMY-1)
1 | C=CC(=O)Nc1cccc(Nc2nc(Nc3ccc(N4CCN(C(C)=O)CC4)cc3OC)ncc2C(F)(F)F)c1 [Rociletinib] (tested concentration range 0.5-5000 nM) | 6 | 6.6 | 8.3 | 2.1 | 6.8 | 5.2 | 2.6 | 4 | 2.6 | 5 | 7
2 | Cc1cccc(-c2nn3c(c2-c2ccnc4ccc(C(N)=O)cc24)CCC3)n1 [Galunisertib] (tested concentration range 0.1-1000 nM) | 0 | 0 | 0 | 0.1 | 0 | 0 | 0 | 0 | 0 | 0 | 0
3 | FC(F)(F)c1ccc(/C=C/c2nc(COc3ccc(CCCCn4ccnn4)cc3)co2)cc1 [Mubritinib] (tested concentration range 0.1-1000 nM) | 5.8 | 0 | 0 | 0 | 0 | 0 | 0 | 0 | 11.7 | 9.7 | 12
4 | Cc1[nH]c2ccccc2c1CCNCc1ccc(/C=C/C(=O)NO)cc1 [Panobinostat] (tested concentration range 0.1-1000 nM) | 23.2 | 11.3 | 11.4 | 7.7 | 8 | 10.4 | 9.3 | 7.9 | 23.1 | 10.9 | 22.9
5 | CN(C)Cc1c(C(=O)NCCOc2ccc(C(=O)NO)cc2)oc2ccccc12 [Abexinostat] (tested concentration range 1-10000 nM) | 19.8 | 10 | 12.2 | 8.9 | 6.9 | 9.3 | 9.9 | 9 | 19.5 | 10.6 | 21.6
6 | CC#CC(=O)N1CCC[C@H]1c1nc(-c2ccc(C(=O)Nc3ccccn3)cc2)c2c(N)nccn12 [Acalabrutinib] (tested concentration range 0.1-1000 nM) | 0 | 0.1 | 0.4 | 0 | 0 | 0.8 | 0 | 0 | 0 | 0 | 0
7 | CNC(=O)c1ccc(N2C(=S)N(c3cnc(C#N)c(C(F)(F)F)c3)C(=O)C23CCC3)cc1F [Apalutamide] (tested concentration range 1-10000 nM) | 0 | 0.2 | 0.8 | 0.8 | 0 | 0.1 | 0.2 | 0 | 2.7 | 0.9 | 0
8 | CNC(=O)c1cccc2cc(Oc3ccnc4cc(OCC5(N)CC5)c(OC)cc34)ccc12 [Lucitanib] (tested concentration range 1-10000 nM) | 1.8 | 6 | 5.9 | 6.3 | 7.4 | 3.9 | 6.6 | 13.5 | 3.4 | 5.7 | 2.8
9 | CC[C@@](C)(Nc1ccnc(-c2c[nH]c3ncccc23)n1)C(=O)NCC(F)(F)F [Decernotinib] (tested concentration range 1-10000 nM) | 0 | 0.2 | 0.1 | 0.5 | 0 | 0 | 0 | 0 | 0 | 0 | 0.7
10 | C[C@@H]1CN(C(=O)c2ccc(NC(=O)c3cc(O[C@H](C)c4c(Cl)ccc(F)c4Cl)c(N)nn3)cc2)C[C@H](C)N1 [Ensartinib] (tested concentration range 0.1-1000 nM) | 2.1 | 2.2 | 3.1 | 2.7 | 0.7 | 4.1 | 2.2 | 0.8 | 1.4 | 2.3 | 3
11 | Cc1cc(Nc2ncnc3ccc(NC4=NC(C)(C)CO4)cc23)ccc1Oc1ccn2ncnc2c1 [Tucatinib] (tested concentration range 0.2-2500 nM) | 0 | 0.4 | 0 | 0 | 0 | 0 | 0.1 | 0 | 0.6 | 0.1 | 0
12 | COc1cc(Nc2c(C#N)cnc3cc(OCCCN4CCN(C)CC4)c(OC)cc23)c(Cl)cc1Cl [Bosutinib] (tested concentration range 1-10000 nM) | 7.7 | 7.4 | 8.5 | 6.6 | 5.8 | 6.2 | 5.1 | 4.1 | 10.1 | 4.8 | 9.2
13 | CCCCCOC(=O)Nc1nc(=O)n([C@@H]2O[C@H](C)[C@@H](O)[C@H]2O)cc1F [Capecitabine] (tested concentration range 1-10000 nM) | 0 | 0 | 0 | 0 | 0 | 0 | 0 | 0 | 0 | 0 | 0
14 | OC[C@H]1O[C@@H](n2cnc3c2N=CNC[C@H]3O)C[C@@H]1O [Pentostatin] (tested concentration range 1-10000 nM) | 0 | 0 | 0 | 0 | 0 | 0 | 0 | 0 | 0 | 0 | 0
15 | O=c1ncn2nc(Sc3ccc(F)cc3F)ccc2c1-c1c(Cl)cccc1Cl [Neflamapimod] (tested concentration range 1-10000 nM) | 0.8 | 0 | 0 | 0 | 0 | 0 | 0 | 0 | 1.2 | 0 | 0
16 | Cc1cnc(Nc2ccc(OCCN3CCCC3)cc2)nc1Nc1cccc(S(=O)(=O)NC(C)(C)C)c1 [Fedratinib] (tested concentration range 1-10000 nM) | 9.5 | 3.9 | 5 | 9.7 | 4.6 | 5.2 | 8 | 9.6 | 8 | 7.7 | 7.2
17 | CCOC(=O)CCNc1cc(N2CCc3ccccc3CC2)nc(-c2ccccn2)n1 [GSK-J4] (tested concentration range 10-100000 nM) | 2.1 | 2.1 | 4.3 | 0.6 | 3.7 | 0.3 | 0 | 0 | 3.5 | 0.3 | 0.5
18 | Cc1ncc(Cl)cc1NCc1ccc(C(=O)N[C@@H](CC2CCCC2)C(=O)NC2CC2)s1 (tested concentration range 0.5-5000 nM) | 0 | 0 | 3 | 0.4 | 0.6 | 2.1 | 0 | 1.2 | 2 | 3.7 | 0
19 | CCCCCCCCc1ccc(CCC(N)(CO)CO)cc1 [Fingolimod] (tested concentration range 1-10000 nM) | 7 | 5.4 | 5.3 | 5.2 | 6 | 6.8 | 5.9 | 6.3 | 7.9 | 5.1 | 6.7
20 | CC[C@H](Nc1ncnc2[nH]cnc12)c1nc2cccc(F)c2c(=O)n1-c1ccccc1 [Idelalisib] (tested concentration range 1-10000 nM) | 2 | 3.4 | 4.5 | 4.6 | 5.6 | 3.6 | 3.2 | 3.9 | 10.2 | 5.4 | 1.3
21 | C/C=C1\NC(=O)[C@H]2CSSCC/C=C/[C@H](CC(=O)N[C@H](C(C)C)C(=O)N2)OC(=O)[C@H](C(C)C)NC1=O [Romidepsin] (tested concentration range 0.1-1000 nM) | 27.9 | 23.1 | 23.4 | 23.1 | 21.4 | 25 | 26.6 | 24.4 | 35.5 | 22.5 | 30
22 | COc1c(OCCCN2CCOCC2)ccc2c1N=C(NC(=O)c1cnc(N)nc1)N1CCN=C21 [Copanlisib] (tested concentration range 0.1-1000 nM) | 14.1 | 7.7 | 9.8 | 6 | 8.7 | 9.9 | 7 | 7.5 | 4.7 | 8.8 | 7.7
23 | Nc1cccc2c1C(=O)N(C1CCC(=O)NC1=O)C2=O (stereo unspecified) [Pomalidomide] (tested concentration range 1-10000 nM) | 0 | 0 | 0 | 0 | 0 | 0 | 0 | 0 | 0 | 0 | 0
24 | CC(=O)c1c(C)c2cnc(Nc3ccc(N4CCNCC4)cn3)nc2n(C2CCCC2)c1=O [Palbociclib] (tested concentration range 1-10000 nM) | 7.9 | 2.5 | 7.4 | 0 | 3.3 | 4.9 | 1.4 | 2 | 7.7 | 5.1 | 2.1
25 | CCN(CC)CCNC(=O)c1c(C)[nH]c(/C=C2\C(=O)Nc3ccc(F)cc32)c1C [Sunitinib] (tested concentration range 0.1-1000 nM) | 0.8 | 0 | 2.5 | 2.8 | 0 | 0.3 | 0 | 0 | 0 | 0 | 0.5
26 | CCc1c(C(=O)C(N)=O)c2c(OCC(=O)O)cccc2n1Cc1ccccc1 [Varespladib] (tested concentration range 1-10000 nM) | 0 | 0 | 0 | 0 | 0 | 1.3 | 0 | 0 | 0 | 0 | 0
